Earlier results in patent US6369078B1, “Solenopsin derivatives and analogues as fire ant suppressants” (priority 1999, dated 2002).

Key:
fire ants = conditions: stomach insecticide combined with bait
[1] = test system: blood and tissue- and fluid-feeding parasites
[2] = as much as 6000 units over a shorter time period

For `ClC1(Cl)C2(Cl)C3(Cl)C4(Cl)C(Cl)(Cl)C5(Cl)C3(Cl)C1(Cl)C5(Cl)C24Cl` (stereo not shown) [Mirex], the “effectiveness against fire ants” value (fire ants) is given as “more than 95%”.
For `CCCCCCCCCCC[C@H]1CCC[C@H](C)N1` (relative stereo) [Solenopsin A, trans-2-methyl 6-n-undecylpiperidine], the “units equivalent to 250 units of the whole body extracts” value ([1]; synthetic version against whole body extract) is given as 1500 units, the “elimination of blood and tissue- and fluid-feeding parasites” value ([1]; synthetically produced, oral) is given as “complete elimination” and the ill effects [2] is given as “did not cause any ill effects”.
